Like-named read-outs stand apart in the source and are kept apart here.
Experiments:
[1] = tested on: K-aerogenes strains producing both a plasmid-mediated and chromosomally mediated β-lactamase; experiment: MIC of compound (i) alone and in combination with compound (iii), K. aerogenes strains; format: cell-based, Klebsiella aerogenes; conditions: for MIC µg/ml compound (i) compound (iii) (µg/ml) 1: with compound (iii) 1 µg/ml; for MIC µg/ml compound (i) compound (iii) (µg/ml) 2: with compound (iii) 2 µg/ml; for MIC µg/ml compound (i) compound (iii) (µg/ml) 5: with compound (iii) 5 µg/ml; for MIC µg/ml compound (i) compound (iii) (µg/ml) 10: with compound (iii) 10 µg/ml
[2] = tested on: highly resistant strains of Pseudomonas aeruginosa (producing both a plasmid-and chromosomally-mediated β-lactamase); experiment: MIC of compound (i) alone and in combination with compound (iii), Pseudomonas aeruginosa strains; format: cell-based; conditions: for MIC: Pseudomonas aeruginosa

Q: For `CC1(C)S[C@@H]2[C@H](NC(=O)[C@H](NC(=O)Nc3cnc(Nc4ccc(S(N)(=O)=O)cc4)nc3O)c3ccc(O)cc3)C(=O)N2[C@H]1C(=O)O` [compound (i)], which “MIC µg/ml compound (i) compound (iii) (µg/ml) 1” value ([1]; strain 11974) is on record?
A: 0.31 µg/mL

Q: What about the “MIC µg/ml compound (i) compound (iii) (µg/ml) 2” value ([1]; strain 11974) of the same molecule?
A: 0.16 µg/mL

Q: What about the “MIC µg/ml compound (i) compound (iii) (µg/ml) 5” value ([1]; strain 11974) of the same molecule?
A: 0.08 µg/mL

Q: What about the “MIC µg/ml compound (i) compound (iii) (µg/ml) 10” value ([1]; strain 11974) of the same molecule?
A: 0.04 µg/mL

Q: What about the “MIC µg/ml compound (i) compound (iii) (µg/ml) 2” value ([1]; strain BED4) of the same molecule?
A: 2.5 µg/mL

Q: And the “MIC µg/ml compound (i) compound (iii) (µg/ml) 5” value ([1]; strain BED4)?
A: 1.25 µg/mL

Q: And the “MIC µg/ml compound (i) compound (iii) (µg/ml) 10” value ([1]; strain BED4)?
A: 0.31 µg/mL

Q: What about the “MIC µg/ml compound (i) alone” value ([1]; strain BED6) of the same molecule?
A: >160 µg/mL

Q: And the “MIC µg/ml compound (i) compound (iii) (µg/ml) 1” value ([1]; strain BED6)?
A: 0.62 µg/mL

Q: What about the “MIC µg/ml compound (i) compound (iii) (µg/ml) 2” value ([1]; strain BED6) of the same molecule?
A: 0.31 µg/mL

Q: And the “MIC µg/ml compound (i) compound (iii) (µg/ml) 5” value ([1]; strain BED6)?
A: 0.16 µg/mL

Q: And the “MIC µg/ml compound (i) compound (iii) (µg/ml) 10” value ([1]; strain BED6)?
A: 0.08 µg/mL

Q: What about the “MIC µg/ml compound (i) alone” value ([1]; strain BED9) of the same molecule?
A: >160 µg/mL

Q: And the “MIC µg/ml compound (i) compound (iii) (µg/ml) 1” value ([1]; strain BED9)?
A: 0.31 µg/mL

Q: And the “MIC µg/ml compound (i) compound (iii) (µg/ml) 2” value ([1]; strain BED9)?
A: 0.31 µg/mL

Q: What about the “MIC µg/ml compound (i) compound (iii) (µg/ml) 5” value ([1]; strain BED9) of the same molecule?
A: 0.16 µg/mL

Q: And the “MIC µg/ml compound (i) compound (iii) (µg/ml) 10” value ([1]; strain BED9)?
A: 0.04 µg/mL

Q: And the “MIC µg/ml compound (i) alone” value ([1]; strain Ba95)?
A: >160 µg/mL

Q: What about the “MIC µg/ml compound (i) compound (iii) (µg/ml) 1” value ([1]; strain Ba95) of the same molecule?
A: 0.31 µg/mL

Q: What about the “MIC µg/ml compound (i) compound (iii) (µg/ml) 2” value ([1]; strain Ba95) of the same molecule?
A: 0.31 µg/mL

Q: What about the “MIC µg/ml compound (i) compound (iii) (µg/ml) 5” value ([1]; strain Ba95) of the same molecule?
A: 0.16 µg/mL

Q: What about the “MIC µg/ml compound (i) compound (iii) (µg/ml) 10” value ([1]; strain Ba95) of the same molecule?
A: 0.02 µg/mL

Q: What about the “MIC µg/ml compound (i) alone” value ([1]; strain SA4) of the same molecule?
A: >160 µg/mL

Q: And the “MIC µg/ml compound (i) compound (iii) (µg/ml) 1” value ([1]; strain SA4)?
A: 2.5 µg/mL

Q: What about the “MIC µg/ml compound (i) compound (iii) (µg/ml) 2” value ([1]; strain SA4) of the same molecule?
A: 1.25 µg/mL

Q: And the “MIC µg/ml compound (i) compound (iii) (µg/ml) 5” value ([1]; strain SA4)?
A: 0.31 µg/mL

Q: And the “MIC µg/ml compound (i) compound (iii) (µg/ml) 10” value ([1]; strain SA4)?
A: 0.08 µg/mL

Q: And the “MIC µg/ml compound (i) alone” value ([1]; strain VA1)?
A: >160 µg/mL

Q: And the “MIC µg/ml compound (i) compound (iii) (µg/ml) 1” value ([1]; strain VA1)?
A: 10 µg/mL

Q: And the “MIC µg/ml compound (i) compound (iii) (µg/ml) 2” value ([1]; strain VA1)?
A: 5 µg/mL

Q: What about the “MIC µg/ml compound (i) compound (iii) (µg/ml) 5” value ([1]; strain VA1) of the same molecule?
A: 2.5 µg/mL

Q: What about the “MIC µg/ml compound (i) compound (iii) (µg/ml) 10” value ([1]; strain VA1) of the same molecule?
A: 0.31 µg/mL

Q: And the “MIC µg/ml compound (i) alone” value ([1]; strain VA2)?
A: >160 µg/mL

Q: And the “MIC µg/ml compound (i) compound (iii) (µg/ml) 1” value ([1]; strain VA2)?
A: 40 µg/mL

Q: What about the “MIC µg/ml compound (i) compound (iii) (µg/ml) 2” value ([1]; strain VA2) of the same molecule?
A: 10 µg/mL

Q: What about the “MIC µg/ml compound (i) compound (iii) (µg/ml) 5” value ([1]; strain VA2) of the same molecule?
A: 2.5 µg/mL

Q: What about the “MIC µg/ml compound (i) compound (iii) (µg/ml) 10” value ([1]; strain VA2) of the same molecule?
A: 0.62 µg/mL

Q: And the “MIC µg/ml compound (i) alone” value ([1]; strain VA3)?
A: >160 µg/mL

Q: What about the “MIC µg/ml compound (i) compound (iii) (µg/ml) 1” value ([1]; strain VA3) of the same molecule?
A: 40 µg/mL

Q: What about the “MIC µg/ml compound (i) compound (iii) (µg/ml) 2” value ([1]; strain VA3) of the same molecule?
A: 10 µg/mL

Q: What about the “MIC µg/ml compound (i) compound (iii) (µg/ml) 5” value ([1]; strain VA3) of the same molecule?
A: 2.5 µg/mL

Q: And the “MIC µg/ml compound (i) compound (iii) (µg/ml) 10” value ([1]; strain VA3)?
A: 0.31 µg/mL

Q: And the “MIC µg/ml compound (i) alone” value ([1]; strain VA5)?
A: >160 µg/mL

Q: What about the “MIC µg/ml compound (i) compound (iii) (µg/ml) 1” value ([1]; strain VA5) of the same molecule?
A: >80 µg/mL

Q: What about the “MIC µg/ml compound (i) compound (iii) (µg/ml) 2” value ([1]; strain VA5) of the same molecule?
A: 80 µg/mL

Q: What about the “MIC µg/ml compound (i) compound (iii) (µg/ml) 5” value ([1]; strain VA5) of the same molecule?
A: 20 µg/mL

Q: And the “MIC µg/ml compound (i) compound (iii) (µg/ml) 10” value ([1]; strain VA5)?
A: 2.5 µg/mL

Q: What about the MIC ([2]; read-out: MIC µg/ml compound (i) alone) of the same molecule?
A: > 160 µg/mL

Q: And the MIC ([2]; read-out: MIC µg/ml compound (i) alone, Geometric mean)?
A: > 160 µg/mL

Q: And the “MIC µg/ml compound (i) compound (iii) (µg/ml) 1, Geometric mean” value ([2]; geometric mean of 6 Pseudomonas aeruginosa strains, with compound (iii) 1 µg/ml, 95% confidence limits (13.7-58.5))?
A: 28.3 µg/mL

Q: What about the “MIC µg/ml compound (i) compound (iii) (µg/ml) 2, Geometric mean” value ([2]; geometric mean of 6 Pseudomonas aeruginosa strains, with compound (iii) 2 µg/ml, 95% confidence limits (4.7-21.4)) of the same molecule?
A: 10 µg/mL

Q: What about the “MIC µg/ml compound (i) compound (iii) (µg/ml) 5, Geometric mean” value ([2]; geometric mean of 6 Pseudomonas aeruginosa strains, with compound (iii) 5 µg/ml, 95% confidence limits (3.1-12.9)) of the same molecule?
A: 6.1 µg/mL

Q: And the “MIC µg/ml compound (i) compound (iii) (µg/ml) 10, Geometric mean” value ([2]; geometric mean of 6 Pseudomonas aeruginosa strains, with compound (iii) 10 µg/ml, 95% confidence limits (2.7-14.6))?
A: 6.3 µg/mL

Q: And the “MIC µg/ml compound (i) alone” value ([2]; strain 1822)?
A: >160 µg/mL

Q: What about the “MIC µg/ml compound (i) compound (iii) (µg/ml) 1” value ([2]; strain 1822, with compound (iii) 1 µg/ml) of the same molecule?
A: 40 µg/mL

Q: And the “MIC µg/ml compound (i) compound (iii) (µg/ml) 2” value ([2]; strain 1822, with compound (iii) 2 µg/ml)?
A: 5 µg/mL

Q: And the “MIC µg/ml compound (i) compound (iii) (µg/ml) 5” value ([2]; strain 1822, with compound (iii) 5 µg/ml)?
A: 2.5 µg/mL

Q: And the “MIC µg/ml compound (i) compound (iii) (µg/ml) 10” value ([2]; strain 1822, with compound (iii) 10 µg/ml)?
A: 2.5 µg/mL

Q: And the “MIC µg/ml compound (i) compound (iii) (µg/ml) 1” value ([2]; strain Dalgleish, with compound (iii) 1 µg/ml)?
A: 20 µg/mL

Q: And the “MIC µg/ml compound (i) compound (iii) (µg/ml) 2” value ([2]; strain Dalgleish, with compound (iii) 2 µg/ml)?
A: 10 µg/mL

Q: And the “MIC µg/ml compound (i) compound (iii) (µg/ml) 5” value ([2]; strain Dalgleish, with compound (iii) 5 µg/ml)?
A: 5 µg/mL

Q: And the “MIC µg/ml compound (i) compound (iii) (µg/ml) 10” value ([2]; strain Dalgleish, with compound (iii) 10 µg/ml)?
A: 10 µg/mL

Q: What about the “MIC µg/ml compound (i) alone” value ([2]; strain FR6) of the same molecule?
A: >160 µg/mL

Q: What about the “MIC µg/ml compound (i) compound (iii) (µg/ml) 1” value ([2]; strain FR6, with compound (iii) 1 µg/ml) of the same molecule?
A: 80 µg/mL

Q: What about the “MIC µg/ml compound (i) compound (iii) (µg/ml) 2” value ([2]; strain FR6, with compound (iii) 2 µg/ml) of the same molecule?
A: 40 µg/mL

Q: And the “MIC µg/ml compound (i) compound (iii) (µg/ml) 5” value ([2]; strain FR6, with compound (iii) 5 µg/ml)?
A: 20 µg/mL

Q: What about the “MIC µg/ml compound (i) compound (iii) (µg/ml) 10” value ([2]; strain FR6, with compound (iii) 10 µg/ml) of the same molecule?
A: 10 µg/mL

Q: And the “MIC µg/ml compound (i) alone” value ([2]; strain FR13)?
A: >160 µg/mL

Q: What about the “MIC µg/ml compound (i) compound (iii) (µg/ml) 1” value ([2]; strain FR13, with compound (iii) 1 µg/ml) of the same molecule?
A: 40 µg/mL

Q: What about the “MIC µg/ml compound (i) compound (iii) (µg/ml) 2” value ([2]; strain FR13, with compound (iii) 2 µg/ml) of the same molecule?
A: 10 µg/mL

Q: What about the “MIC µg/ml compound (i) compound (iii) (µg/ml) 5” value ([2]; strain FR13, with compound (iii) 5 µg/ml) of the same molecule?
A: 5 µg/mL

Q: What about the “MIC µg/ml compound (i) compound (iii) (µg/ml) 10” value ([2]; strain FR13, with compound (iii) 10 µg/ml) of the same molecule?
A: 2.5 µg/mL

Q: And the “MIC µg/ml compound (i) alone” value ([2]; strain Horton)?
A: >160 µg/mL

Q: And the “MIC µg/ml compound (i) compound (iii) (µg/ml) 1” value ([2]; strain Horton, with compound (iii) 1 µg/ml)?
A: 20 µg/mL

Q: What about the “MIC µg/ml compound (i) compound (iii) (µg/ml) 2” value ([2]; strain Horton, with compound (iii) 2 µg/ml) of the same molecule?
A: 10 µg/mL

Q: What about the “MIC µg/ml compound (i) compound (iii) (µg/ml) 5” value ([2]; strain Horton, with compound (iii) 5 µg/ml) of the same molecule?
A: 10 µg/mL

Q: What about the “MIC µg/ml compound (i) compound (iii) (µg/ml) 10” value ([2]; strain Horton, with compound (iii) 10 µg/ml) of the same molecule?
A: 20 µg/mL

Q: And the “MIC µg/ml compound (i) alone” value ([2]; strain P22)?
A: >160 µg/mL

Q: And the “MIC µg/ml compound (i) compound (iii) (µg/ml) 1” value ([2]; strain P22, with compound (iii) 1 µg/ml)?
A: 10 µg/mL

Q: And the “MIC µg/ml compound (i) compound (iii) (µg/ml) 2” value ([2]; strain P22, with compound (iii) 2 µg/ml)?
A: 5 µg/mL

Q: And the “MIC µg/ml compound (i) compound (iii) (µg/ml) 5” value ([2]; strain P22, with compound (iii) 5 µg/ml)?
A: 5 µg/mL

Q: And the “MIC µg/ml compound (i) compound (iii) (µg/ml) 10” value ([2]; strain P22, with compound (iii) 10 µg/ml)?
A: 5 µg/mL

Reference: EP0049968A1, “Pharmaceutical compositions” (priority 1980, dated 1982)
